{"source": "patent US9572862B2", "about": "“Methods for promoting lipolysis and oxidation in liver and adipose tissue using catestatin” (The Regents of the University of California, priority 2012, dated 2017)", "key": {"[1]": {"test_system": "adipose tissue explants from DIO mice", "test": "Lipolysis and fatty acid oxidation in adipose explants of DIO mice", "type": "cell-based", "experimental": "FIG. 8. Lipolysis and fatty acid oxidation in the adipose tissue explants of DIO and Ob/Ob mice after treatment with saline or CST for 16 days. Explants were incubated with saline or leptin (1 μM) for 3 hr and the concentrations of glycerol (A&C) and NEFA (B&D) released into the media from DIO (A&B) and Ob/Ob (C&D) explants were determined as a measure of lipolysis. Homogenates of the explants from DIO (E) and Ob/Ob […] were used to determine their capacity for oxidation of U-^14C-palmitate in response to the treatment with saline, CST, leptin and CST+leptin. The ^14CO2 released was captured and counted as the measure of fatty acid oxidation.\n(§1) Adipose tissue explants were prepared as described (42). Epididymal fat pads from 12 hr fasted WT, Chga-KO, DIO and Ob/Ob mice with or without CST treatment were collected in Kreb-Ringer-phosphate (KRP) buffer containing 10 mM Hepes and 0.5% BSA. Tissues were minced to 1-2 mm size and treated with 100 nM CST, 1 μM leptin, or saline for 30 min (for signaling analysis) or 3 hr (for lipolysis and β-oxidation assays). Explants were also treated acutely with CST, leptin, a combination, or saline. At the end, incubation media were saved for analysis of glycerol and fatty acid release. Explants were washed prior to homogenization for immunoblotting and analysis of fatty acid oxidation.\nOxidation of radiolabeled palmitate in the homogenates of adipose tissue explants as described previously (45). For oxidation studies of cultured cells, HepG2 (hepatocytes) and 3T3-L1 preadipocytes were obtained from ATCC and cultured following supplier's protocol. Confluent 3T3-L1 cultures were differentiated into adipocytes by treating with a cocktail of dexamethasone (100 nM), IBMX ([…]) and insulin (100 nM) for 10 days. Media were then switched to serum-free DMEM with 1% BSA. Hepatocytes were assayed for lipogenesis and fat oxidation in response to CST treatment. Serum-free cultures were treated with CST (100 nM) for 24 hr followed by a 2 hr incubation with U^14C-palmitate (0.5 μCi/ml). Fatty acid oxidation in cells was determined by modifying a published method (46). Specifically, the culture media in 24-well plates were acidified with 10% HClO4 after incubation with the labeled fatty acid and immediately covered with a thick filter paper sheet (cut to size) soaked in 2 N NaOH and placed underneath the plastic lid. The whole plate was sealed with parafilm. After further incubation for 2 hr, the filter paper sheet was marked as circles around the rim of the wells and then the circles were excised. The filter discs were counted to determine the amount of ^14CO2 absorbed in the papers. Cells in the culture wells were lysed in 1 N NaOH and protein content was assayed using Folin's reagent (BioRad, Hercules, Calif.)."}, "[2]": {"test_system": "Chga-KO mice", "test": "Incorporation and oxidation of 14C-palmitate in vivo", "settings": "for 14C-palmitate incorporation into lipids: CST 12 days", "experimental": "FIG. 3. Effects of CST on lipogenesis from fatty acid and fatty acid oxidation in hepatic and adipose tissues. Incorporation of ^14C-palmitate into lipids in adipose (A) and liver (B) in Chga-KO mice after saline or CST treatment (5 μg/g BW, i.p./day) for 12 days. Partial oxidation to acid soluble metabolites (ASM) in adipose tissue (C) and liver (D). Complete oxidation to ^14CO2 in hepatocytes (HepG2) and adipocytes (3T3-L1) after saline or CST treatment (E).\nMice were injected with saline or CST (5 μg/g BW, i.p.; […]) for 12 days. One hr after the final injection, U-^14C-palmitate (5 μCi, 100 μl of 0.2 mM, i.p.) was injected and mice were sacrificed 3 hr later. Liver and adipose tissues (˜100 mg) were homogenized in 0.8 ml 3.5 N perchloric acid and extracted by vortexing in 3 ml of a mixture of methanol and chloroform (2:1, v/v). To the final homogenate, 1.2 ml of 3.5 N perchloric acid was added. The mixture was vortexed and centrifuged. The lower (chloroform) layer contained all the lipids derived from the incorporation of ^14C-palmitate, whereas the upper acidic layer contained partially oxidized acid-soluble metabolites (ASM) of ^14C-palmitate. The lower layer was further fractionated by thin layer chromatography on silica gel plates using hexane: diethyl ether: acetic acid (79:20:1, v/v/v) mixture as the developing solvent. Lipogenesis from palmitate was determined based on the radioactivity of the free palmitic acid band compared to other lipids (phospholipids, triglycerides, diacylglycerol, etc.) on the TLC plate. Complete oxidation of ^14C-palmitate was measured in cultured cells but not in mice."}, "[3]": {"test_system": "STAT3 and AMPK phosphorylation", "test": "Stat3 and AMPK signaling in adipose explants from Ob/Ob mice", "type": "cell-based", "settings": "CST in vivo, leptin 1 μM ex vivo 30 min", "experimental": "FIG. 9. Stat3 and AMPK signaling in the adipose tissue explants from DIO and Ob/Ob mice treated with saline, CST (in vivo) and leptin (ex vivo). Explants from DIO mice (A&B) and Ob/Ob mice (C&D) were incubated with saline or leptin (1 μM) for 30 min, homogenized and immunoblotted for phospho- and total Stat3 (A&C) as well as phospho- and total AMPK signals (B&D). Results are presented as the ratio of signal strength of phospho-over total.\nas §1\nAdipose tissue explants after treatments ex vivo and tissues from mice treated in vivo were homogenized in a buffer containing phosphatase and protease inhibitors (20 mM Tris/HCl (pH 7.5), 250 mM sucrose, 2 mM EDTA, 2 mM EGTA, 2 mM Na3VO4, 10 mM NaF, 2 mM Na4P2O7, 1 mM phenylmethylsulfonyl fluoride, 20 μg/ml leupeptin, 10 μg/ml aprotinin, and 1 μM LR-microcystin) as described (38,44). Homogenates were subjected to SDS-PAGE and immunoblotted. Primary antibodies for AMPK and Stat3 were from Cell Signaling Technology (Beverly, Mass.). The chemiluminescence kit was from Pierce (Rockford, Ill.)."}, "[4]": {"settings": "CST in vivo 16 days, leptin 1 μM ex vivo 3 hr"}}, "note": "No end group written: not given here.", "data": [{"sequence": "SSMKLSFRARAYGFRGPGPQL [CST]", "values": [{"measurement": "palmitate oxidation", "setting": "[1]", "result": "neither CST nor leptin alone stimulated oxidation"}, {"measurement": "NEFA release in the media", "setting": "[1]; [4]", "result": "not significant"}, {"measurement": "glycerol release in the media", "setting": "[1]; [4]", "result": "can release some glycerol in the media"}, {"measurement": "palmitate oxidation into ASMs", "setting": "[2]; adipose tissue", "result": "stimulated"}, {"measurement": "14C-palmitate incorporation into lipids", "setting": "[2]; adipose tissue", "result": "decreased"}, {"measurement": "palmitate oxidation into ASMs", "setting": "[2]; liver", "result": "stimulated"}, {"measurement": "14C-palmitate incorporation into lipids", "setting": "[2]; liver", "result": "enhanced"}, {"measurement": "STAT3 phosphorylation", "setting": "[3]", "result": "CST stimulation of STAT3 phosphorylation"}]}]}
